Results: PubChem BioAssay (NCI)
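Briefly, cells in 96-well plates were exposed to five compound concentrations for 48 h, and endpoints were estimated by linear interpolation. TGI is the concentration that stops growth completely.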

Tests used:
Test in all cases: growth of human tumour cells (NCI), 48 h
[1] = system: KM12 colon
[2] = system: TK-10 renal
[3] = system: DMS 273 small cell lung
[4] = system: OVCAR-4 ovarian
[5] = system: SK-MEL-2 melanoma
[6] = system: XF 498 CNS
[7] = system: SF-539 CNS
[8] = system: OVCAR-8 ovarian
[9] = system: SNB-19 CNS
[10] = system: U251 CNS
[11] = system: SK-OV-3 ovarian
[12] = system: NCI-H460 lung
[13] = system: KM20L2 colon
[14] = system: EKVX NSCLC
[15] = system: SR leukemia
[16] = system: A498 renal
[17] = system: NCI-H522 lung
[18] = system: RXF 393 renal
[19] = system: MOLT-4 leukemia
[20] = system: HCT-116 colon
[21] = system: COLO 205 colon
[22] = system: OVCAR-3 ovarian
[23] = system: SF-295 CNS
[24] = system: K-562 leukemia
[25] = system: SN12C renal
[26] = system: UACC-257 melanoma
[27] = system: UO-31 renal
[28] = system: CCRF-CEM leukemia
[29] = system: UACC-62 melanoma
[30] = system: OVCAR-5 ovarian
[31] = system: NCI-H23 lung
[32] = system: HT29 colon
[33] = system: IGROV1 ovarian
[34] = system: HOP-62 NSCLC
[35] = system: HCC-2998 colon
[36] = system: A549 NSCLC
[37] = system: SK-MEL-5 melanoma
[38] = system: RPMI-8226 leukemia
[39] = system: LOX IMVI melanoma
[40] = system: HOP-18 NSCLC
[41] = system: HOP-92 NSCLC
[42] = system: HL-60(TB) leukemia
[43] = system: MALME-3M melanoma
[44] = system: NCI-H226 lung
[45] = system: DLD-1 colon
[46] = system: SNB-75 CNS
[47] = system: M14 melanoma
[48] = system: SW-620 colon
[49] = system: SK-MEL-28 melanoma
[50] = system: HCT-15 colon
[51] = system: DMS 114 small cell lung
[52] = system: ACHN renal
[53] = system: 786-0 renal
[54] = system: SF-268 CNS
[55] = system: LXFL 529 NSCLC
[56] = system: SNB-78 CNS
[57] = system: CAKI-1 renal

[N-]=[N+]=CC(=O)c1ccccc1C#CCCc1ccccc1 showed a TGI [1] greater than 100 µM, a TGI [2] greater than 100 µM and a TGI [3] of 73.7 µM. The TGI [4] was greater than 100 µM, the TGI [5] was 79.7 µM and the TGI [6] was 41.3 µM. The TGI [7] was greater than 100 µM, the TGI [8] was greater than 100 µM and the TGI [9] was greater than 100 µM. It also gave a TGI [10] of 88.5 µM, a TGI [11] of 66.7 µM and a TGI [12] greater than 100 µM. For the same compound, the TGI [13] was 62.7 µM, the TGI [14] was 75.5 µM and the TGI [15] was greater than 100 µM. The TGI [16] was greater than 100 µM, the TGI [17] was 30.9 µM and the TGI [18] was greater than 100 µM. The TGI [19] was 40.9 µM, the TGI [20] was 48.9 µM and the TGI [21] was 71.1 µM. For the same compound, the TGI [22] was 61.5 µM, the TGI [23] was greater than 100 µM and the TGI [24] was greater than 100 µM. For the same compound, the TGI [25] was greater than 100 µM, the TGI [26] was 94.7 µM and the TGI [27] was greater than 100 µM. The TGI [28] was 62.1 µM, the TGI [29] was 69.8 µM and the TGI [30] was greater than 100 µM. The TGI [31] was 89.2 µM, the TGI [32] was 36.7 µM and the TGI [33] was greater than 100 µM. It also gave a TGI [34] greater than 100 µM, a TGI [35] greater than 100 µM and a TGI [36] greater than 100 µM. It also gave a TGI [37] of 32.2 µM, a TGI [38] of 50.2 µM and a TGI [39] greater than 100 µM. The TGI [40] was greater than 100 µM, the TGI [41] was 63.6 µM and the TGI [42] was 32.9 µM. It also gave a TGI [43] of 79.1 µM, a TGI [44] of 98.3 µM and a TGI [45] greater than 100 µM. The TGI [46] was 61.4 µM, the TGI [47] was greater than 100 µM and the TGI [48] was greater than 100 µM. It also gave a TGI [49] greater than 100 µM, a TGI [50] greater than 100 µM and a TGI [51] of 23.6 µM. For the same compound, the TGI [52] was 68.8 µM.

Cc1ccc([N+](=O)[O-])cc1NC(=O)/C(=N/NC(=S)NN)C1SC(=S)NC1=O (configuration not stated) was tested, and the TGI [1] was greater than 100 µM, the TGI [2] was greater than 100 µM and the TGI [3] was greater than 100 µM. The TGI [4] was greater than 100 µM, the TGI [5] was greater than 100 µM and the TGI [6] was greater than 100 µM. It also gave a TGI [7] greater than 100 µM, a TGI [53] greater than 100 µM and a TGI [8] greater than 100 µM. For the same compound, the TGI [9] was greater than 100 µM, the TGI [10] was greater than 100 µM and the TGI [11] was greater than 100 µM. It also gave a TGI [12] greater than 100 µM, a TGI [13] greater than 100 µM and a TGI [14] greater than 100 µM. It also gave a TGI [54] greater than 100 µM, a TGI [15] greater than 100 µM and a TGI [16] greater than 100 µM. The TGI [17] was greater than 100 µM, the TGI [18] was greater than 100 µM and the TGI [19] was greater than 100 µM. For the same compound, the TGI [20] was greater than 100 µM, the TGI [21] was greater than 100 µM and the TGI [23] was greater than 100 µM. For the same compound, the TGI [24] was greater than 100 µM, the TGI [25] was greater than 100 µM and the TGI [26] was greater than 100 µM. It also gave a TGI [55] greater than 100 µM, a TGI [27] greater than 100 µM and a TGI [56] greater than 100 µM. It also gave a TGI [28] greater than 100 µM, a TGI [29] greater than 100 µM and a TGI [30] greater than 100 µM. The TGI [31] was greater than 100 µM, the TGI [32] was greater than 100 µM and the TGI [33] was greater than 100 µM. For the same compound, the TGI [34] was greater than 100 µM, the TGI [36] was greater than 100 µM and the TGI [37] was greater than 100 µM. It also gave a TGI [38] greater than 100 µM, a TGI [39] greater than 100 µM and a TGI [40] greater than 100 µM. For the same compound, the TGI [41] was greater than 100 µM, the TGI [42] was greater than 100 µM and the TGI [43] was greater than 100 µM. The TGI [44] was greater than 100 µM, the TGI [57] was greater than 100 µM and the TGI [45] was greater than 100 µM. It also gave a TGI [46] greater than 100 µM, a TGI [47] greater than 100 µM and a TGI [48] greater than 100 µM. It also gave a TGI [49] greater than 100 µM, a TGI [50] greater than 100 µM and a TGI [51] greater than 100 µM. It also gave a TGI [52] greater than 100 µM.
